Measurements published in patent US7407951B2, “Pyrrolobenzodiazepines” (Spirogen Limited, priority 2002, dated 2008).

Legend:
Breast MACL MCF7 = assay: In vitro clonogenic assay (two-layer agar), breast; format: cell-based, human; conditions: continuous exposure, 8-20 days, colony count
Experimental: (§1) In order to determine the activity of the compounds synthesised, solid human tumour xenografts growing subcutaneously in serial passages in thymus aplastic nude mice (Naval Medical Research Institute, USA nu/nu strain) were removed under sterile condition, mechanically disaggregated and subsequently incubated with an enzyme cocktail consisting of collagenase (41 U/ml, Sigma), DNAse I (125 U/ml, Roche), hyaluronidase (1000 U/ml, Sigma) and dispase II (1.0 U/ml) in RPMI 1640-Medium (Life Technologies) at 37° C. for 30 minutes. Cells were passed through sieves of 200 μm and 50 μm mesh size and washed twice with sterile PBS-buffer. The percentage of viable cells was determined in a Neubauer-hemocytometer using trypan blue exclusion. The cells generated were as follows: • Breast MACL MCF7 • […] • Lung 629L • Melanoma MEXF 462NL
(§2) The clonogenic assay was performed in a 24-well format according to a modified two-layer agar assay introduced by Hamburger, A. W. and Salmon, S. E., Science, 197, […] (1977). The bottom layer consisted of 0.2 ml/well of Iscove's Modified Dulbecco's Medium (supplemented with 20% fetal calf serum and 1% gentamicin) and 0.75% agar. 4×10^4 to 8×10^4 cells were added to 0.2 ml of the same culture medium supplemented with 0.4% agar and plated in 24-multiwell dishes onto the bottom layer. The test compounds were applied by continuous exposure (drug overlay) in 0.2 ml culture medium. Each dish included six control wells containing the vehicle and drug treated groups in triplicate at 6 concentrations. Cultures were incubated at 37° C. and 7.5% CO2 in a humidified atmosphere for 8-20 days and monitored closely for colony growth using an inverted microscope. Within this period, in vitro tumour growth led to the formation of colonies with a diameter of >50 μm. At the time of maximum colony formation, counts were performed with an automatic image analysis system (OMNICOM FAS IV, Biosys GmbH). 24 hours prior to evaluation, vital colnies were stained with a sterile aqueous solution of 2-(4-iodophenyl)-3-(4-nitrophenyl)-5-phenyltetrazolium chloride (1 mg/ml, 100 μl/well).
(§3) The IC50 values of the test compounds were determined by plotting compound concentration versus cell viability.

renal cell lines = assay: NCI hollow fibre assay, renal variation; format: in vivo, human; conditions: three cell lines; for IP + SC score: combined score, 5 or more referred for xenograft testing; for IP score: intraperitoneal fibres in mice; for IP score / SC score: drug IP QDx4, 2 doses, 2 points per dose giving 50% or greater reduction in viable cell mass; for SC score: subcutaneous fibres in mice
Source text: (§4) The Biological testing Branch of the Developmental Therapeutics Program of the NCI has adopted a preliminary in vivo screening tool for assessing the potential anticancer activity of compounds identified by the large scale in vitro cell screen. For these assays, human tumour cells are cultivated in polyvinylidene (PVDF) hollow fibres, and a sample of each cell line is implanted into each of two physiologic compartments (intraperitoneal and subcutaneaous) in mice. Each test mouse received a total of 6 fibres (3 intraperitoneally and 3 subcutaneously) representing 3 distinct cancer cell lines. These mice are treated with potential antitumour compounds at each of 2 test doses by the intraperitoneal route using a QD×4 treatment schedule. Vehicle controls consist of 6 mice receiving the compound diluent only. The fibre cultures are collected on the day following the last day of treatment. To assess anticancer effects, the viable cell mass is determined for each of the cell lines using a formazyn dye (MTT) conversion assay. From this, the % T/C can be calculated using the average optical density of compound treated samples divided by the average optical; density of the vehicle controls. In addition, the net increase in cell mass can be determined for each sample, as a sample of fibre cultures are assessed for viable cell mass on the day of implantation into mice. Thus, the cytostatic and cytocidal capacities of the test compound can be assessed.
(§5) Generally, each compound is tested against a minimum of 12 human cancer cell lines. This represents a total of 4 experiments since each experiment contains 3 cell lines. The data are reported as % T/C for each of the 2 compound doses against each of the cell lines with separate values calculated for the intraperitoneal and subcutaneous samples.
(§6) Compounds are selected for further in vivo testing in standard subcutaneous xenograft models on the basis of several hollow fibre assay criteria. These include: (1) a % T/C of 50 or less in 10 of the 48 possible test combinations (12 cell lines×2 sites ×2 compound doses); (2) activity at a distance (intraperitoneal drug/subcutaneous culture) in a minimum of 4 of the 24 possible combinations; and/or (3) a net cell kill of 1 or more of the cell lines in either implant site. To simplify evaluation, a points system has been adopted which allows rapid evaluation of the activity of a given compound. For this, a value of 2 is assigned for each compound dose which results in a 50% or greater reduction in viable cell mass. The intraperitoneal and subcutaneous samples are scored separately so that criteria (1) and (2) can be evaluated. Compounds with a combined IP+SC score of 20, a SC score of 8 or a net cell kill of one or more cell lines are referred for xenograft testing. […] In addition to these criteria, other factors (e.g. unique structure, mechanism of action) may result in referral of a compound for xenograft testing without the compound meeting these criteria.
(§7) Certain compounds of the invention were tested in variations of these assays, to assess their activity against renal and melanoma cell lines. In the melanoma assay, only 6 cell lines are used, and therefore compounds with a combined IP+SC score of 10 or a SC score of 4 are referred for xenograft testing. In the renal assay, only three cell lines are used and therefore compounds with a combined IP+SC score of 5 or a SC score of 2 are referred for xenograft testing.

Renal RXF 944L = assay: In vitro clonogenic assay (two-layer agar), renal; format: cell-based, human; conditions: continuous exposure, 8-20 days, colony count
Experimental: as §1, §2, §3

Melanoma MEXF 462NL = assay: In vitro clonogenic assay (two-layer agar), melanoma; format: cell-based, human; conditions: continuous exposure, 8-20 days, colony count
Experimental: as §1, §2, §3

Lung 629L = assay: In vitro clonogenic assay (two-layer agar), lung; format: cell-based, human; conditions: continuous exposure, 8-20 days, colony count
Experimental: as §1, §2, §3

melanoma cell lines = assay: NCI hollow fibre assay, melanoma variation; format: in vivo, human; conditions: 6 cell lines; for IP + SC score: combined score, 10 or more referred for xenograft testing; for IP score: intraperitoneal fibres in mice; for IP score / SC score: drug IP QDx4, 2 doses, 2 points per dose giving 50% or greater reduction in viable cell mass; for SC score: subcutaneous fibres in mice
Source text: as §4, §5, §6, §7

[1] = system: approximately 60 human tumour cell lines; assay: NCI in vitro cytotoxicity screen (SRB assay); format: cell-based; conditions: GI50 in Moles, 48 hour continuous exposure
Experimental: The National Cancer Institute (NCI), Bethesda, Md. USA has available an in vitro cytotoxicity screen which consists of approximately 60 human tumour cell lines against which compounds are tested at a minimum of five concentrations each differing 10-fold. A 48 hour continuous exposure protocol is used, where cell viability or growth is estimated with an SRB protein assay.
The test compounds were evaluated against approximately 60 human tumour cell lines. The NCI screening procedures were described in detail by Monks and co-workers (Monks, A et al., Journal of the National Cancer Institute, 1991, 83, 757). Briefly, cell suspensions were diluted according to the particular cell type and the expected target cell density (5000-40,000 cells per well based on cell growth characteristics), and added by pipette (100 μL) into 96-well microtitre plates. The cells were allowed a preincubation period of 24 hours at 37° C. for stabilisation. Dilutions at twice the intended test concentration were added at time zero in 100 μL aliquots to the wells. The test compounds were evaluated at five 10-fold dilutions (10^−4, 10^−5, 10^−6, 10^−7 and 10^−[…]). The test compounds were incubated for 48 hours in 5% CO2 atmosphere and 100% humidity. The cells were then assayed using the sulphorhodamine B assay. […]

SMILES | IC50 (Breast MACL MCF7; Homo sapiens) | IP + SC score (renal cell lines) | IP score (renal cell lines) | SC score (renal cell lines) | IC50 (Renal RXF 944L; Homo sapiens) | IC50 (Lung 629L; Homo sapiens) | IP + SC score (melanoma cell lines) | IP score (melanoma cell lines) | SC score (melanoma cell lines) | also measured
COc1cc2c(cc1OC)C(=O)N1C=C(c3ccc4ccccc4c3)C[C@H]1C=N2 [Compound 11, (11aS)-1,11a-dihydro-7,8-dimethoxy-2-(2-napthyl)-5H-pyrrolo[2,1-c][1,4]benzodiazepin-5-one] | 0.22 nM |  |  |  |  |  |  |  |  | 
COc1cc2c(cc1OC)C(=O)N1C=C(c3c(C)cccc3C)C[C@H]1C=N2 [Compound 27, (11aS)-1,11a-dihydro-7,8-dimethoxy-2-(2,6-dimethylbenzene)-5H-pyrrolo[2,1-c][1,4]benzodiazepin-5-one] |  | 8 | 4 | 4 |  |  |  |  |  | 
COc1cc2c(cc1OC)C(=O)N1C=C(c3ccc(F)cc3)C[C@H]1C=N2 [Compound 17, (11aS)-1,11a-dihydro-7,8-dimethoxy-2-(4-fluorobenzene)-5H-pyrrolo[2,1-c][1,4]benzodiazepin-5-one] |  |  |  |  | 0.17 nM |  |  |  |  | 
COc1cc2c(cc1OC)C(=O)N1C=C(c3ccc(C)cc3)C[C@H]1C=N2 [Compound C3, reference compound] | 1.59 nM | 2 | 2 | 0 | 0.89 nM | 8 nM | 2 | 0 | 2 | IC50 (Melanoma MEXF 462NL; Homo sapiens): 2 nM
COc1cc2c(cc1OC)C(=O)N1C=C(c3ccc(Cl)cc3)C[C@H]1C=N2 [Compound 15, (11aS)-1,11a-dihydro-7,8-dimethoxy-2-(4-chlorobenzene)-5H-pyrrolo[2,1-c][1,4]benzodiazepin-5-one] | 0.15 nM |  |  |  |  |  |  |  |  | 
COc1ccc(C2=CN3C(=O)c4cc(OC)c(OC)cc4N=C[C@@H]3C2)cc1 [Compound C2] | 1.96 nM |  |  |  | 1.5 nM | 5 nM |  |  |  | IC50 (Melanoma MEXF 462NL; Homo sapiens): 2.85 nM
COc1cc2c(cc1OC)C(=O)N1C=C(c3ccc(C(C)(C)C)cc3)C[C@H]1C=N2 [Compound 13, (11aS)-1,11a-dihydro-7,8-dimethoxy-2-(4-tert-butylbenzene)-5H-pyrrolo[2,1-c][1,4]benzodiazepin-5-one] |  | 6 | 4 | 2 |  |  | 6 | 2 | 4 | IC50 (Breast MACL MCF7): 0.26 nM
CCc1ccc(C2=CN3C(=O)c4cc(OC)c(OC)cc4N=C[C@@H]3C2)cc1 [Compound 21, (11aS)-1,11a-dihydro-7,8-dimethoxy-2-(4-ethylbenzene)-5H-pyrrolo[2,1-c][1,4]benzodiazepin-5-one] |  |  |  |  |  |  | 10 | 10 | 0 | IC50 (Melanoma MEXF 462NL): < 0.1 nM; IC50 (Renal RXF 944L): < 0.1 nM; IC50 (Lung 629L): 0.36 nM; IC50 (Breast MACL MCF7): < 0.1 nM
COc1cc2c(cc1OC)C(=O)N1C=C(c3cccs3)C[C@H]1C=N2 [Compound 23, (11aS)-1,11a-dihydro-7,8-dimethoxy-2-(2-thiophene)-5H-pyrrolo[2,1-c][1,4]benzodiazepin-5-one] | 0.35 nM |  |  |  |  |  |  |  |  | MG_MID (average log GI50 across all cell lines tested) [1]: −6.34
COc1cc2c(cc1OC)C(=O)N1C=C(c3ccccc3C)C[C@H]1C=N2 [Compound 19, (11aS)-1,11a-dihydro-7,8-dimethoxy-2-(2-methylbenzene)-5H-pyrrolo[2,1-c][1,4]benzodiazepin-5-one] | 0.35 nM |  |  |  |  | 1 nM | 8 | 4 | 4 | 
COc1cc2c(cc1OC)C(=O)N1C=C(c3ccco3)C[C@H]1C=N2 [Compound 25, (11aS)-1,11a-dihydro-7,8-dimethoxy-2-(2-furan)-5H-pyrrolo[2,1-c][1,4]benzodiazepin-5-one] |  |  |  |  |  |  |  |  |  | MG_MID (average log GI50 across all cell lines tested) [1]: −7.18
COc1cc2c(cc1OC)C(=O)N1C=C(c3ccccc3)C[C@H]1C=N2 [Compound C1, reference compound] | 19.3 nM | 0 | 0 | 0 | 20.5 nM | 44.5 nM | 4 | 4 | 0 | IC50 (Melanoma MEXF 462NL; Homo sapiens): 40 nM
